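These data come from cells grown in 96-well plates and exposed to compound for 48 hours at five concentrations. Here, GI50 denotes the concentration required for 50% inhibition of growth. TGI marks complete inhibition of growth.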
How the values were obtained:
Assay in all cases: inhibition of tumour cell growth, NCI panel, 48 h
SNB-19 CNS = tested on: SNB-19 CNS
OVCAR-5 ovarian = tested on: OVCAR-5 ovarian
SN12C renal = tested on: SN12C renal
HOP-92 NSCLC = tested on: HOP-92 NSCLC
TK-10 renal = tested on: TK-10 renal
PC-3 prostate = tested on: PC-3 prostate
OVCAR-4 ovarian = tested on: OVCAR-4 ovarian
HL-60(TB) leukemia = tested on: HL-60(TB) leukemia
UACC-257 melanoma = tested on: UACC-257 melanoma
CAKI-1 renal = tested on: CAKI-1 renal

SMILES	GI50 (SNB-19 CNS)	TGI (SNB-19 CNS)	GI50 (OVCAR-5 ovarian)	TGI (OVCAR-5 ovarian)	GI50 (SN12C renal)	TGI (SN12C renal)	GI50 (HOP-92 NSCLC)	TGI (HOP-92 NSCLC)	GI50 (TK-10 renal)	TGI (TK-10 renal)	GI50 (PC-3 prostate)	TGI (PC-3 prostate)	GI50 (OVCAR-4 ovarian)	TGI (OVCAR-4 ovarian)	GI50 (HL-60(TB) leukemia)	TGI (HL-60(TB) leukemia)	GI50 (UACC-257 melanoma)	TGI (UACC-257 melanoma)	TGI (CAKI-1 renal)
CSc1ccc(-c2ccccc(=O)c2O)cc1	0.57 µM	> 100 µM	1.64 µM	> 100 µM	0.878 µM	30.3 µM	1.61 µM	73.3 µM	0.593 µM	> 100 µM	0.748 µM	> 100 µM	0.271 µM	67.3 µM	0.283 µM	1.55 µM	0.749 µM	> 100 µM	
CCOC(=O)C1SC(=Nc2cccc(Cl)c2C)N=C1C (stereo not drawn)		> 100 µM		41.9 µM		35.6 µM		30.4 µM		73.3 µM				89.5 µM		46.8 µM		> 10 µM	
COc1ccc(/C=C(/C(=O)N2CCN(c3ccccc3)CC2)c2cc(OC)c(OC)c(OC)c2)cc1N	0.444 µM	> 100 µM	0.569 µM	> 100 µM	0.643 µM	> 100 µM	3.53 µM	> 100 µM	72.1 µM	> 100 µM	0.414 µM	> 100 µM	3.05 µM	> 100 µM	0.241 µM	0.596 µM	3.65 µM	> 100 µM	
O=C1CC(c2c(-c3ccccc3)[nH]c3ccccc23)C(=O)N1 (stereo not drawn)				> 100 µM						> 100 µM				> 100 µM		> 100 µM		> 100 µM	> 100 µM
COc1ccc(OC(C)=O)c2c1CCC=CC2=O		31.4 µM		31 µM		31 µM		7.49 µM		32.2 µM				36.1 µM		6.7 µM		31.8 µM	
COc1ccccc1NC(=O)C1=C(C)NC(C)=C(C(=O)Nc2ccccc2OC)C1C1=CC=COC1		84.2 µM		> 100 µM		> 100 µM		83.8 µM		61.6 µM				> 100 µM		10.7 µM		68.3 µM	56.8 µM
C=C=C(C(=O)OC)S(=O)c1ccccc1[N+](=O)[O-] (stereo not drawn)		> 100 µM		> 100 µM		> 100 µM				> 100 µM				> 100 µM		> 100 µM		> 100 µM	> 100 µM
CC[C@@H]1[C@@H](C)O[C@@](O)([C@@H](C)[C@H](O)[C@H](C)[C@H]2OC(=O)/C=C/C=C/[C@H](C)[C@@H]([C@@H](C)[C@@H](O)[C@H](C)[C@@]3(O)C[C@@H](O[C@H]4C[C@@H](O)[C@H](O)C(C)O4)[C@H](CC)[C@@H](C)O3)OC(=O)/C=C/C=C/[C@@H]2C)C[C@H]1O[C@@H]1C[C@@H](O)[C@H](O)C(C)O1 (stereo partly drawn)	0.0731 µM	0.212 µM	0.0839 µM	0.316 µM	0.0584 µM	0.126 µM	0.0381 µM	0.125 µM	0.0746 µM	0.212 µM	0.0568 µM	0.147 µM	0.0741 µM	0.192 µM	0.0708 µM	0.14 µM			
COC1OC(CO)C(O)C(OC(C)=O)C1NC(=O)N(CCCl)N=O (stereo not drawn)		> 100 µM		> 100 µM		> 100 µM				> 100 µM				> 100 µM		> 100 µM		> 100 µM	> 100 µM
COC(=O)C(=O)C(C(=O)C(=O)Nc1cccc(C(C)=O)c1)c1nc2ccc([N+](=O)[O-])cc2[nH]c1=O (stereo not drawn)		> 100 µM		> 100 µM		> 100 µM		> 100 µM		> 100 µM				> 100 µM		> 100 µM		> 100 µM	> 100 µM
